Starred links: 1 amine or outer side, 2 acyl side, 3 side chain; linkers in the order of their positions; H or OH if unused. Positions of bridges follow the written chain, without caps; N, C: chain ends. Residues, ends and D or L forms follow the SMILES beside them. *: point of attachment. C18 diacid = O=C(O)CCCCCCCCCCCCCCCCC(=O)*; γGlu = O=C(O)[C@H](CCC(=O)[*:2])N[*:1]; AEEA = NCCOCCOCC(=O)O

In the test the target is T1, human natriuretic peptide receptor 2 (hNPR2) (Homo sapiens, UniProt P20594).
T1 construct: expressed in transfected cells; host or cells: HEK293 (ATCC CRL-1573), clone 35, co-transfected with pGloSensor-42F
T1 sequence (P20594 23-1047): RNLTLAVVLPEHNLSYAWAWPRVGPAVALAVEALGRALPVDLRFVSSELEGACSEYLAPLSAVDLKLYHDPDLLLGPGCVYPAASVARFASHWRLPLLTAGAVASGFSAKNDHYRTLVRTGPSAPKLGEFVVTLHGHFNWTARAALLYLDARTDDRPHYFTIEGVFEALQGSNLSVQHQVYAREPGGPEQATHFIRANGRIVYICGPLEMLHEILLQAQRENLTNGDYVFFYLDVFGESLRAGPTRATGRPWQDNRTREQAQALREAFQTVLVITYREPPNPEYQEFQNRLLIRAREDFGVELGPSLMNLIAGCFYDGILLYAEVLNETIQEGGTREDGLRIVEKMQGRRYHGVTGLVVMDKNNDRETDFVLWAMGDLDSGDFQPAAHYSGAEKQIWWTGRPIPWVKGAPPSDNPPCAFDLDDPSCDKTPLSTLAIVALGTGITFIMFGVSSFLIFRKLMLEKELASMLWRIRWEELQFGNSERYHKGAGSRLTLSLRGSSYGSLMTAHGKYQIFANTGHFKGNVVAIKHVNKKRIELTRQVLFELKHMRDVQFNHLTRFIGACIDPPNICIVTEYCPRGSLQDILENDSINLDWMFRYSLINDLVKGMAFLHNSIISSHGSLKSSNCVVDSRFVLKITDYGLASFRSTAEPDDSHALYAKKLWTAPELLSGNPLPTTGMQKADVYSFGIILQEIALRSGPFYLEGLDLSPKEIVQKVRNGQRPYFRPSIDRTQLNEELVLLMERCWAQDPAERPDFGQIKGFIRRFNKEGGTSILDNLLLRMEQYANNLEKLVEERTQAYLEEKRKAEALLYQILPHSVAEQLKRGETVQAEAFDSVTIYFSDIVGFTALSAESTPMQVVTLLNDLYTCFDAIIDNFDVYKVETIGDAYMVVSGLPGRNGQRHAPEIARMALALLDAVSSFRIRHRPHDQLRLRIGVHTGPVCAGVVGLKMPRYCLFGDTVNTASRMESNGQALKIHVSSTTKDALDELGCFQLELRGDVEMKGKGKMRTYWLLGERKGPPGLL
The experiment in a line: In vitro hNPR2 activity assay (cGMP GloSensor reporter, HEK293). The test is classed as cell-based. The note with it: potency relative to CNP22 (0065). The gist of the method:
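Potency is the EC50 from a four-parameter logistic fit, also expressed relative to the in-plate CNP22 control (×100), with at least two replicates. Compounds (ten concentrations, […], HSA-free diluent with 1% OVA, 0.01% Tween20) were incubated 30 min at 37 °C on HEK293 cells co-expressing hNPR2 and a GloSensor cGMP luciferase. Luminescence detected with Bright-Glo.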

Take `CC[C@H](C)[C@@H]1NC(=O)[C@H](CCCNC(=N)N)NC(=O)[C@H](CC(=O)O)NC(=O)[C@H](CC(C)C)NC(=O)[C@@H]2CCCN2C(=O)[C@H](CC(C)C)NC(=O)CNC(=O)[C@H](Cc2ccccc2)NC(=O)[C@@H](NC(=O)CNC(=O)[C@H](CO)NC(=O)[C@H](CO)NC(=O)[C@@H](NC(=O)CNC(=O)[C@@H](NC(=O)[C@H](Cc2c[nH]cn2)NC(=O)[C@H](CCC(N)=O)NC(=O)[C@H](C)NC(=O)CNC(=O)[C@H](Cc2c[nH]cn2)NC(=O)[C@H](Cc2ccc(O)cc2)NC(=O)[C@H](CCCCN)NC(=O)[C@H](CCCNC(=N)N)NC(=O)[C@H](C)NC(=O)COCCOCCNC(=O)COCCOCCNC(=O)CC[C@H](NC(=O)CC[C@H](NC(=O)CC[C@H](NC(=O)CCCCCCCCCCCCCCCCC(=O)O)C(=O)O)C(=O)O)C(=O)O)[C@@H](C)O)C(C)C)CSSC[C@@H](C(=O)O)NC(=O)CNC(=O)[C@H](CC(C)C)NC(=O)CNC(=O)[C@H](CO)NC(=O)[C@H](CC(C)C)NC(=O)[C@H](CO)NC(=O)CNC1=O` [compound 1449] ({C18 diacid-γGlu-γGlu-γGlu-AEEA-AEEA}-ARKYHGAQHTGVSSGCFGLPLDRIGSLSGLGC-OH; disulfide 16-32; C-terminus assumed): the “hNPR2 0% HSA. [EC50% rel CNP]” value was determined as 110.0%. With `CC[C@H](C)[C@@H]1NC(=O)[C@H](CCCNC(=N)N)NC(=O)[C@H](CC(=O)O)NC(=O)[C@H](CC(C)C)NC(=O)[C@@H]2CCCN2C(=O)[C@H](CC(C)C)NC(=O)CNC(=O)[C@H](Cc2ccccc2)NC(=O)[C@@H](NC(=O)CNC(=O)[C@H](CO)NC(=O)[C@H](CO)NC(=O)[C@@H](NC(=O)CNC(=O)[C@@H](NC(=O)[C@H](CCCCN)NC(=O)[C@H](CCC(N)=O)NC(=O)[C@H](C)NC(=O)CNC(=O)[C@H](Cc2c[nH]cn2)NC(=O)[C@H](Cc2ccc(O)cc2)NC(=O)[C@H](CCCCN)NC(=O)[C@H](CCCNC(=N)N)NC(=O)[C@H](C)NC(=O)COCCOCCNC(=O)COCCOCCNC(=O)CC[C@H](NC(=O)CC[C@H](NC(=O)CC[C@H](NC(=O)CCCCCCCCCCCCCCCCC(=O)O)C(=O)O)C(=O)O)C(=O)O)[C@@H](C)O)C(C)C)CSSC[C@@H](C(=O)O)NC(=O)CNC(=O)[C@H](CC(C)C)NC(=O)CNC(=O)[C@H](CO)NC(=O)[C@H](CC(C)C)NC(=O)[C@H](CO)NC(=O)CNC1=O` [compound 1450] ({C18 diacid-γGlu-γGlu-γGlu-AEEA-AEEA}-ARKYHGAQKTGVSSGCFGLPLDRIGSLSGLGC-OH; disulfide 16-32), the “hNPR2 0% HSA. [EC50% rel CNP]” value turned out to be 84.2%.

Regarding `CC[C@H](C)[C@@H]1NC(=O)[C@H](CCCNC(=N)N)NC(=O)[C@H](CCC(=O)O)NC(=O)[C@H](CC(C)C)NC(=O)[C@@H]2CCCN2C(=O)[C@H](CC(C)C)NC(=O)CNC(=O)[C@H](Cc2ccccc2)NC(=O)[C@@H](NC(=O)CNC(=O)[C@H](CO)NC(=O)[C@H](CO)NC(=O)[C@@H](NC(=O)CNC(=O)[C@H](CCCCN)NC(=O)[C@H](CCCCN)NC(=O)[C@H](CCC(N)=O)NC(=O)[C@H](C)NC(=O)CNC(=O)[C@H](Cc2c[nH]cn2)NC(=O)[C@H](Cc2ccc(O)cc2)NC(=O)[C@H](CCCCN)NC(=O)[C@H](CCCNC(=N)N)NC(=O)[C@H](C)NC(=O)COCCOCCNC(=O)COCCOCCNC(=O)CC[C@H](NC(=O)CC[C@H](NC(=O)CC[C@H](NC(=O)CCCCCCCCCCCCCCCCC(=O)O)C(=O)O)C(=O)O)C(=O)O)C(C)C)CSSC[C@@H](C(=O)O)NC(=O)CNC(=O)[C@H](CC(C)C)NC(=O)CNC(=O)[C@H](CO)NC(=O)[C@H](CC(C)C)NC(=O)[C@H](CO)NC(=O)CNC1=O` [compound 1451] ({C18 diacid-γGlu-γGlu-γGlu-AEEA-AEEA}-ARKYHGAQKKGVSSGCFGLPLERIGSLSGLGC-OH; disulfide 16-32), the “hNPR2 0% HSA. [EC50% rel CNP]” value was found to be 47.5%. In the case of `CC[C@H](C)[C@@H]1NC(=O)[C@H](CCCNC(=N)N)NC(=O)[C@H](CC(=O)O)NC(=O)[C@H](CC(C)C)NC(=O)[C@@H]2CCCN2C(=O)[C@H](CC(C)C)NC(=O)CNC(=O)[C@H](Cc2ccccc2)NC(=O)[C@@H](NC(=O)CNC(=O)[C@H](CCC(N)=O)NC(=O)[C@H](CO)NC(=O)[C@H](CC(C)C)NC(=O)CNC(=O)[C@H](CCCCN)NC(=O)[C@H](CCCCN)NC(=O)[C@H](CCC(N)=O)NC(=O)[C@H](C)NC(=O)CNC(=O)[C@H](CCCCN)NC(=O)[C@H](Cc2ccc(O)cc2)NC(=O)[C@H](CCCCN)NC(=O)[C@H](CCCNC(=N)N)NC(=O)[C@H](C)NC(=O)COCCOCCNC(=O)COCCOCCNC(=O)COCCOCCNC(=O)CC[C@H](NC(=O)CC[C@H](NC(=O)CC[C@H](NC(=O)CC[C@H](NC(=O)CC[C@H](NC(=O)CCCCCCCCCCCCCCCCC(=O)O)C(=O)O)C(=O)O)C(=O)O)C(=O)O)C(=O)O)CSSC[C@@H](C(=O)O)NC(=O)CNC(=O)[C@H](CC(C)C)NC(=O)CNC(=O)[C@H](CO)NC(=O)[C@H](CC(C)C)NC(=O)[C@H](CO)NC(=O)CNC1=O` [compound 1452] ({C18 diacid-γGlu-γGlu-γGlu-γGlu-γGlu-AEEA-AEEA-AEEA}-ARKYKGAQKKGLSQGCFGLPLDRIGSLSGLGC-OH; disulfide 16-32), the “hNPR2 0% HSA. [EC50% rel CNP]” value is 57.6%. With `CC[C@H](C)[C@@H]1NC(=O)[C@H](CCCNC(=N)N)NC(=O)[C@H](CC(=O)O)NC(=O)[C@H](CC(C)C)NC(=O)[C@@H]2CCCN2C(=O)[C@H](CC(C)C)NC(=O)CNC(=O)[C@H](Cc2ccccc2)NC(=O)[C@@H](NC(=O)CNC(=O)[C@H](CCC(N)=O)NC(=O)[C@H](CO)NC(=O)[C@H](CC(C)C)NC(=O)CNC(=O)[C@H](CCCCN)NC(=O)[C@H](CCCCN)NC(=O)[C@H](CCC(N)=O)NC(=O)[C@H](C)NC(=O)CNC(=O)[C@H](CCCCN)NC(=O)[C@H](Cc2ccc(O)cc2)NC(=O)[C@H](CCCCN)NC(=O)[C@H](CCCNC(=N)N)NC(=O)[C@H](C)NC(=O)COCCOCCNC(=O)COCCOCCNC(=O)COCCOCCNC(=O)COCCOCCNC(=O)CC[C@H](NC(=O)CC[C@H](NC(=O)CC[C@H](NC(=O)CC[C@H](NC(=O)CCCCCCCCCCCCCCCCC(=O)O)C(=O)O)C(=O)O)C(=O)O)C(=O)O)CSSC[C@@H](C(=O)O)NC(=O)CNC(=O)[C@H](CC(C)C)NC(=O)CNC(=O)[C@H](CO)NC(=O)[C@H](CC(C)C)NC(=O)[C@H](CO)NC(=O)CNC1=O` [compound 1454] ({C18 diacid-γGlu-γGlu-γGlu-γGlu-AEEA-AEEA-AEEA-AEEA}-ARKYKGAQKKGLSQGCFGLPLDRIGSLSGLGC-OH; disulfide 16-32; C-terminus assumed), the “hNPR2 0% HSA. [EC50% rel CNP]” value is reported as 63.6%.

On to `CC[C@H](C)[C@@H]1NC(=O)[C@H](CCCNC(=N)N)NC(=O)[C@H](CC(=O)O)NC(=O)[C@H](CC(C)C)NC(=O)[C@@H]2CCCN2C(=O)[C@H](CC(C)C)NC(=O)CNC(=O)[C@H](Cc2ccccc2)NC(=O)[C@@H](NC(=O)CNC(=O)[C@H](CCC(N)=O)NC(=O)[C@H](CO)NC(=O)[C@H](CC(C)C)NC(=O)CNC(=O)[C@H](CCCCN)NC(=O)[C@H](CCCCN)NC(=O)[C@H](CCC(N)=O)NC(=O)[C@H](C)NC(=O)CNC(=O)[C@H](CCCCN)NC(=O)[C@H](Cc2ccc(O)cc2)NC(=O)[C@H](CCCCN)NC(=O)[C@H](CCCNC(=N)N)NC(=O)[C@H](C)NC(=O)COCCOCCNC(=O)COCCOCCNC(=O)COCCOCCNC(=O)CC[C@H](NC(=O)CC[C@H](NC(=O)CC[C@H](NC(=O)CC[C@H](NC(=O)CCCCCCCCCCCCCCCCC(=O)O)C(=O)O)C(=O)O)C(=O)O)C(=O)O)CSSC[C@@H](C(=O)O)NC(=O)CNC(=O)[C@H](CC(C)C)NC(=O)CNC(=O)[C@H](CO)NC(=O)[C@H](CC(C)C)NC(=O)[C@H](CO)NC(=O)CNC1=O` [compound 1455] ({C18 diacid-γGlu-γGlu-γGlu-γGlu-AEEA-AEEA-AEEA}-ARKYKGAQKKGLSQGCFGLPLDRIGSLSGLGC-OH; disulfide 16-32), for which the “hNPR2 0% HSA. [EC50% rel CNP]” value amounted to 43.4%.

For the origin of these results see patent US20240209028A1, “CNP COMPOUNDS” (priority 2022, published 2024).
